Measurements reported in PubChem BioAssay AID1259407 (Chemical Carcinogenesis Research Information System (CCRIS), 2018).
Activity calls are given as the source filed them. How the calls were made is not given here.

Test system: CCRIS mutagenicity, Ames/micronucleus/aberration tests
Assay: CCRIS mutagenicity studies

Measured: mutagenic call

ClCc1ccccc1
active: End Point: IN VITRO CHROMOSOMAL ABERRATIONS, Test System: CHL CELLS, Metabolic Activation: RAT, LIVER, S-9, SODIUM PHENOBARBITAL AND 5,6-BENZOFLAVONE active; positive (structural changes) | End Point: IN VITRO MICRONUCLEUS, Test System: CHL/IU CELLS, Metabolic Activation: NONE active; positive | Test System: AMES SALMONELLA TYPHIMURIUM, Strain/Indicator: TA100, Method: STANDARD PLATE active; positive
inactive: Test System: AMES SALMONELLA TYPHIMURIUM, Strain/Indicator: TA97, Metabolic Activation: HAMSTER, LIVER, S-9, AROCLOR 1254 (10%), Method: PREINCUBATION inactive; negative | Test System: AMES SALMONELLA TYPHIMURIUM, Strain/Indicator: TA97, Metabolic Activation: HAMSTER, LIVER, S-9, AROCLOR 1254 (30%), Method: PREINCUBATION inactive; negative | Test System: AMES SALMONELLA TYPHIMURIUM, Strain/Indicator: TA97, Metabolic Activation: NONE, Method: PREINCUBATION inactive; negative | Test System: AMES SALMONELLA TYPHIMURIUM, Strain/Indicator: TA97, Metabolic Activation: RAT, LIVER, S-9, AROCLOR 1254 (10%), Method: PREINCUBATION inactive; negative | Test System: AMES SALMONELLA TYPHIMURIUM, Strain/Indicator: TA97, Metabolic Activation: RAT, LIVER, S-9, AROCLOR 1254 (30%), Method: PREINCUBATION inactive; negative | Test System: AMES SALMONELLA TYPHIMURIUM, Strain/Indicator: TA98, Metabolic Activation: HAMSTER, LIVER, S-9, AROCLOR 1254 (10%), Method: PREINCUBATION inactive; negative | Test System: AMES SALMONELLA TYPHIMURIUM, Strain/Indicator: TA98, Metabolic Activation: HAMSTER, LIVER, S-9, AROCLOR 1254 (30%), Method: PREINCUBATION inactive; negative | Test System: AMES SALMONELLA TYPHIMURIUM, Strain/Indicator: TA98, Metabolic Activation: NONE, Method: FLUCTUATION (MICROTITER) inactive; negative | Test System: AMES SALMONELLA TYPHIMURIUM, Strain/Indicator: TA98, Metabolic Activation: NONE, Method: PREINCUBATION inactive; negative | Test System: AMES SALMONELLA TYPHIMURIUM, Strain/Indicator: TA98, Metabolic Activation: RAT LIVER S-9, AROCLOR 1254, Method: FLUCTUATION (MICROTITER) inactive; negative | Test System: AMES SALMONELLA TYPHIMURIUM, Strain/Indicator: TA98, Metabolic Activation: RAT LIVER S-9, PHENOBARBITAL AND BETA-NAPHTHOFLAVONE, Method: PREINCUBATION inactive; negative | Test System: AMES SALMONELLA TYPHIMURIUM, Strain/Indicator: TA98, Metabolic Activation: RAT, LIVER, S-9, AROCLOR 1254 (10%), Method: PREINCUBATION inactive; negative | Test System: AMES SALMONELLA TYPHIMURIUM, Strain/Indicator: TA98, Metabolic Activation: RAT, LIVER, S-9, AROCLOR 1254 (30%), Method: PREINCUBATION inactive; negative | Test System: AMES SALMONELLA TYPHIMURIUM, Strain/Indicator: TA100, Metabolic Activation: HAMSTER, LIVER, S-9, AROCLOR 1254 (10 OR 30%), Method: PREINCUBATION inactive; negative | Test System: AMES SALMONELLA TYPHIMURIUM, Strain/Indicator: TA100, Metabolic Activation: NONE, Method: STANDARD PLATE inactive; negative | Test System: AMES SALMONELLA TYPHIMURIUM, Strain/Indicator: TA100, Metabolic Activation: RAT, LIVER, S-9, AROCLOR 1254 (10%), Method: PREINCUBATION inactive; negative | Test System: AMES SALMONELLA TYPHIMURIUM, Strain/Indicator: TA100, Metabolic Activation: RAT, LIVER, S-9, AROCLOR 1254 (30%), Method: PREINCUBATION inactive; negative | Test System: AMES SALMONELLA TYPHIMURIUM, Strain/Indicator: TA1535, Metabolic Activation: HAMSTER, LIVER, S-9, AROCLOR 1254 (10%), Method: PREINCUBATION inactive; negative | Test System: AMES SALMONELLA TYPHIMURIUM, Strain/Indicator: TA1535, Metabolic Activation: HAMSTER, LIVER, S-9, AROCLOR 1254 (30%), Method: PREINCUBATION inactive; negative | Test System: AMES SALMONELLA TYPHIMURIUM, Strain/Indicator: TA1535, Metabolic Activation: NONE, Method: PREINCUBATION inactive; negative | Test System: AMES SALMONELLA TYPHIMURIUM, Strain/Indicator: TA1535, Metabolic Activation: RAT LIVER S-9, PHENOBARBITAL AND BETA-NAPHTHOFLAVONE, Method: PREINCUBATION inactive; negative | Test System: AMES SALMONELLA TYPHIMURIUM, Strain/Indicator: TA1535, Metabolic Activation: RAT, LIVER, S-9, AROCLOR 1254 (10%), Method: PREINCUBATION inactive; negative | Test System: AMES SALMONELLA TYPHIMURIUM, Strain/Indicator: TA1535, Metabolic Activation: RAT, LIVER, S-9, AROCLOR 1254 (30%), Method: PREINCUBATION inactive; negative | Test System: AMES SALMONELLA TYPHIMURIUM, Strain/Indicator: TA1537, Metabolic Activation: HAMSTER, LIVER, S-9, AROCLOR 1254 (10%), Method: PREINCUBATION inactive; negative | Test System: AMES SALMONELLA TYPHIMURIUM, Strain/Indicator: TA1537, Metabolic Activation: NONE, Method: FLUCTUATION (MICROTITER) inactive; negative | Test System: AMES SALMONELLA TYPHIMURIUM, Strain/Indicator: TA1537, Metabolic Activation: NONE, Method: PREINCUBATION inactive; negative
